From patent US20210139497A1, “THIENOCYCLIC COMPOUND AND SYNTHESIS METHOD THEREFOR AND APPLICATION THEREOF” (SHANGHAI YUYAO BIOTECH LTD., priority 2017, published 2021)

Columns and labels:
[1] = molecular target: T1, human PGE2 receptor EP4 subtype (hEP4) (Homo sapiens, UniProt P35408); test: Calcium flux of human prostaglandin E2 receptor EP4 subtype; format: cell-based; details: CHO-K1-Gα16 cells overexpressing hEP4, calcium flux activated by prostaglandin E2; read-out: hEP4 Ca^2+ IC50
T1 construct: expressed in transfected cells; host or cells: CHO-K1-Gα16
Procedure: (§1) CHO-K1-Gα16 cells at the logarithmic growth phase were transfected with EP4 overexpressing vector by Lipofectamine 2000 and then seeded in a 96-well plate (Falcon, CA) and cultured at 20000 cells per 100 μL culture medium overnight. On the second day, every single well were added with 100 μL calcium 5 detection reagents (Molecular Devices) and incubated in incubator at 37° C., 5% CO2 for 45 minutes. The compounds were diluted in HBSS detection buffer, then added to 96-well plates. After incubated for 20 min at room temperature away from light, certain concentration of prostaglandin E2 was used to activate calcium flux of cells for detection (Flexstation 3, MD, CA).
(§2) Calculate the IC50 of the compounds of the invention in inhibiting the calcium flux of human PGE2 receptor EP4 subtype (hEP4) and mouse PGE2 receptor EP4 subtype (mEP4) (i.e. the concentration of drugs at which the intracellular Ca^2+ flux is inhibited by half after overexpressing hEP4 and mEP4 receptors in CHO-K1-Gα16 cells). The IC50 of the drugs were calculated using GraphPad Prism 5.

[2] = molecular target: T2, mouse PGE2 receptor EP4 subtype (mEP4) (Mus musculus, UniProt P32240); test: Calcium flux of mouse prostaglandin E2 receptor EP4 subtype; format: cell-based; details: CHO-K1-Gα16 cells overexpressing mEP4, calcium flux activated by prostaglandin E2; read-out: mEP4 Ca^2+ IC50
T2 construct: expressed in transfected cells; host or cells: CHO-K1-Gα16
Procedure: as §1, §2

[3] = molecular target: T3, human prostaglandin E2 receptor EP1 subtype (Homo sapiens, UniProt P34995); test: Calcium flux of human prostaglandin E2 receptor EP1 subtype; format: cell-based; details: CHO-K1-Gα16 cells overexpressing human EP1, activated by prostaglandin E2; read-out: hEP1 Ca^2+ IC50
T3 construct: expressed in transfected cells; host or cells: CHO-K1-Gα16
T3 sequence (P34995 1-402): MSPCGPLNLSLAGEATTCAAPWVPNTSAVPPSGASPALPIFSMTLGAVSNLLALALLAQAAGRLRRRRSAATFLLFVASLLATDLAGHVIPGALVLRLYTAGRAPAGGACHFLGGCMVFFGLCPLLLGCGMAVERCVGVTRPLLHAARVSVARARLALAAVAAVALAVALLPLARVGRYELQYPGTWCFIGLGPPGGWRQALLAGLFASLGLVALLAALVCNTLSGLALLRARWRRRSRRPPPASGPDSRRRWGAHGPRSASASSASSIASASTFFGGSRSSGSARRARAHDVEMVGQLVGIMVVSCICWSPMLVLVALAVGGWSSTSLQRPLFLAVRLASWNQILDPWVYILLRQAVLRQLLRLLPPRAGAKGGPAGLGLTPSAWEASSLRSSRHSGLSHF
Procedure: (§3) CHO-K1-Gα16 cells at the logarithmic growth phase were transfected with human prostaglandin E2 Receptor subtypes EP1, EP2 or EP3 overexpressing vector by Lipofectamine 2000, then seeded in a 96-well plate (Falcon, CA) at a density of 20000 cells per 100 μL culture medium for overnight culture. On the second day, every single well were added with 100 μL calcium 5 detection reagents (Molecular Devices) and incubated in incubator at 37° C., 5% CO2 for 45 minutes. The compounds were diluted with HBSS detection buffer, then were added to 96-well plates. After 20 min incubation at room temperature in the dark, prostaglandin E2 at certain concentration was used to activate calcium flux of cells for detection (Flexstation 3, MD, CA).
(§4) Calculate the IC50 of the compounds of the invention in inhibiting the calcium flux of human EP1, EP2, and EP3 receptor (i.e. the concentration of drugs at which the intracellular Ca^2+ flux being inhibited by half after overexpressing human EP1, EP2, and EP3 receptors in CHO-K1-Gα16 cells). The IC50 of the drugs were calculated using GraphPad Prism 5.

[4] = molecular target: T4, human prostaglandin E2 receptor EP2 subtype (Homo sapiens, UniProt P43116); test: Calcium flux of human prostaglandin E2 receptor EP2 subtype; format: cell-based; details: CHO-K1-Gα16 cells overexpressing human EP2, activated by prostaglandin E2; read-out: hEP2 Ca^2+ IC50
T4 construct: expressed in transfected cells; host or cells: CHO-K1-Gα16
Procedure: as §3, §4

[5] = molecular target: T5, human prostaglandin E2 receptor EP3 subtype (Homo sapiens, UniProt P43115); test: Calcium flux of human prostaglandin E2 receptor EP3 subtype; format: cell-based; details: CHO-K1-Gα16 cells overexpressing human EP3, activated by prostaglandin E2; read-out: hEP3 Ca^2+ IC50
T5 construct: expressed in transfected cells; host or cells: CHO-K1-Gα16
T5 sequence (P43115 1-390): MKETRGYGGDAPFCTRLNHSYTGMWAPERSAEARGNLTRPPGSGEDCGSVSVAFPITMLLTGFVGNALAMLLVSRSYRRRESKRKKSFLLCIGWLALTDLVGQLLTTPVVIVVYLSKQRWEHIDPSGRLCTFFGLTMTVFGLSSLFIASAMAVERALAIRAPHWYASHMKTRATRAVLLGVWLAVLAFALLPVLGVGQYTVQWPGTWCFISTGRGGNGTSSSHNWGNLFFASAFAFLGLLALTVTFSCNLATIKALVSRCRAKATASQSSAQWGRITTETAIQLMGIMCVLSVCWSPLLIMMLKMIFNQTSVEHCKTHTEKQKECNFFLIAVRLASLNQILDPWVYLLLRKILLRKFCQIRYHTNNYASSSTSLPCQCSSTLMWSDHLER
Procedure: as §3, §4

[6] = test system: mouse colon cancer cells CT26; test: CT26 subcutaneous tumor-bearing model, Balb/c mice; format: in vivo; details: female Balb/c mice, 75 mg/kg/day, 14 days, vs negative control, FIG. 3
Procedure: 2×10^6 mouse colon cancer cells CT26 were subcutaneously injected into right side of each mouse's back (female Balb/c mouse, 6-8 weeks). The length and width of subcutaneous tumors in the back of mice were measured using vernier calipers, and tumor volume (mm^3)=(length(mm)×width(mm)×width(mm)×n)/6 was calculated. […] The volume of subcutaneous tumors on the back of mice was measured and counted twice a week. Continuous administrated for a period of 14 days and the changes of tumor volumes were recorded.
Mouse colon cancer cells MC38, pancreatic cancer cells Pan02, breast cancer cells 4T1, prostate cancer cells RM-1 and colon cancer cells CT26 were cultivated to required amount. Then, cells at a cell density of 5×10^5-2×10^6 were subcutaneously injected into right side of the back of selected female C57BL/6 mice aging 6-8 weeks (MC38, Pan02), male C57BL/6 mice aging 6-8 weeks (RM-1), female Balb/c mice aging 6-8 weeks (4T1, CT26) and female Balb/c nude mice aging 6-8 weeks (CT26). The length and width of subcutaneous tumors in the backs of mice were measured using vernier calipers, and tumor volume(mm^3)=(length(mm)×width(mm)×width(mm)×n)/6 was calculated. […] The volume of subcutaneous tumors on the back of mice was measured and counted 2-4 times a week. Continuous administrated for 12-22 days and the changes of tumor volumes were recorded.

[7] = Cytotoxicity evaluation (CCK8), LLC; details: mouse, LLC lung cancer cells
Procedure: (§5) Cells with a density of 2000-8000 cells per 100 μL medium were seeded in 96-well plates (Falcon, CA) and incubated for 24 hours, then treated with drugs having different concentration gradient (at least 4 replicates per concentration) and incubated at 37° C. in 5% CO2 incubator for 72 hours. Then cell viability was detected by CCK8 method. That is to say, add 10 μL CCK8 to each well and incubate for 0.33-2 h, and the OD values are read by microplate reader at 450 nm. The inhibition rate on cell survival of compounds with each concentration were calculated.
(§6) Inhibition rate on cell survival=(OD value of groups with each concentration/OD
(§7) value of control group)×100%±standard deviation.
(§8) The IC50 of drugs were calculated using GraphPad Prism 5.0.

[8] = Cytotoxicity evaluation (CCK8), 293; details: human
[9] = Cytotoxicity evaluation (CCK8), MOSJ; details: mouse, MOSJ osteosarcoma cells
Procedure: as §5, §6, §7, §8

[10] = Cytotoxicity evaluation (CCK8), CT26; details: mouse, CT26 intestinal cancer cells
Procedure: as §5, §6, §7, §8

[11] = Cytotoxicity evaluation (CCK8), EMT-6; details: mouse, EMT-6 breast cancer cells
Procedure: as §5, §6, §7, §8

[12] = Cytotoxicity evaluation (CCK8), PANC02; details: mouse, PANC02 pancreatic cancer cells
Procedure: as §5, §6, §7, §8

[13] = test system: mouse models of colon cancer, breast cancer, pancreatic cancer and sarcoma; details: Oncoimmunology 2017; cited from earlier work

T2 sequence (P32240 whole entry): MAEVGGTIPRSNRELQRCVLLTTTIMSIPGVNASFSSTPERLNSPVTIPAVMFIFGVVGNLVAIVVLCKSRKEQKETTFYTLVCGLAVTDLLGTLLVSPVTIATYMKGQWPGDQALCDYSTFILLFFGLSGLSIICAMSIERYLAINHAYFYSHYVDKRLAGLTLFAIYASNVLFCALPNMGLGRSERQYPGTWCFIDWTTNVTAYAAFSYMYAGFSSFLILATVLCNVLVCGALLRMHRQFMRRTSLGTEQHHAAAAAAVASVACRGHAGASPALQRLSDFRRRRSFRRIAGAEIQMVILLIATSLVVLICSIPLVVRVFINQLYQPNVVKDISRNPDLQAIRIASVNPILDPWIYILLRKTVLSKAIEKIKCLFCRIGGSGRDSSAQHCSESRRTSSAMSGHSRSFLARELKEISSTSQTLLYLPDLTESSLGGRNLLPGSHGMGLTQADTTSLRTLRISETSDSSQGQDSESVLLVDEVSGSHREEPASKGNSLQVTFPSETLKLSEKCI
T4 sequence (P43116 whole entry): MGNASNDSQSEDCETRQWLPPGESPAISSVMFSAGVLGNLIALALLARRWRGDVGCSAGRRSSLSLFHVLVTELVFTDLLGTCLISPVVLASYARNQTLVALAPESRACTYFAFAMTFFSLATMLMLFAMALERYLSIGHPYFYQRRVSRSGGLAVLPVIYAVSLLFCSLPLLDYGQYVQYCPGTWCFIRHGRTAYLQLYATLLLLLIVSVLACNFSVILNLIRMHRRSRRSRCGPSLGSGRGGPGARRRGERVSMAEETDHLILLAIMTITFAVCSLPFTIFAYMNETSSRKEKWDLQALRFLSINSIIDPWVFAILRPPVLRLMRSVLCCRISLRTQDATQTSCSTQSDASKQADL
T1 sequence (P35408 whole entry): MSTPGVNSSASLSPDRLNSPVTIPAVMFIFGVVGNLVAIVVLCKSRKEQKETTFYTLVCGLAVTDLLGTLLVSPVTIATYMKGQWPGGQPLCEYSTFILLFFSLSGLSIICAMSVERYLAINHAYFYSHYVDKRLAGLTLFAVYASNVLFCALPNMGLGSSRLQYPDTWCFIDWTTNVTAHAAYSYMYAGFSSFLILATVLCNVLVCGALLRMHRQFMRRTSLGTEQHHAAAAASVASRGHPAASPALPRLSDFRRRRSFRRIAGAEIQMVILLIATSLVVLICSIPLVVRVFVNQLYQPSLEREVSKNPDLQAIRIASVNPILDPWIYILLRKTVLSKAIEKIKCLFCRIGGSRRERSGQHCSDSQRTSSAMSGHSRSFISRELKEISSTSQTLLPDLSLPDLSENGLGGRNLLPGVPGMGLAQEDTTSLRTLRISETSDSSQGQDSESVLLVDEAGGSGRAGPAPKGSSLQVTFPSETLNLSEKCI

SMILES | IC50 [1] [µM] | IC50 [2] [µM] | IC50 [3] [µM] | IC50 [4] [µM] | IC50 [5] [µM] | Inhibitory effect on growth of subcutaneous CT26 colon cancer [6] | IC50 at 72 h [7] [µM] | IC50 at 72 h [8] [µM] | IC50 at 72 h [9] [µM] | IC50 at 72 h [10] [µM] | IC50 at 72 h [11] [µM] | IC50 at 72 h [12] [µM] | Inhibitory effects in mouse tumor models [13]
C[C@H](NC(=O)c1c(Cc2cccc(C(F)(F)F)c2)sc2c1CCOC2)c1ccc(C(=O)O)cc1 [YJ116, (S)-4-(1-(2-(3-(trifluoromethyl)benzyl)-5,7-dihydro-4H-thieno[2,3-c]pyran-3-carboxamido)ethyl)benzoic Acid] | < 0.1 | < 0.1 | > 10 | > 10 | > 10 | able to suppress the growth | > 100 | > 100 | > 100 | > 100 | > 100 | > 100 | –
C[C@H](NC(=O)c1c(C(F)F)nn(C)c1Oc1cccc(C(F)(F)F)c1)c1ccc(C(=O)O)cc1 [Compound E7046, reference compound] | – | – | – | – | – | comparable with that of E7046 | – | – | – | – | – | – | good inhibitory effects
C[C@H](NC(=O)c1c(CCc2ccc(F)cc2)sc2c1CCOC2)c1ccc(C(=O)O)cc1 [YJ106, (S)-4-(1-(2-(4-fluorophenethyl)-4,7-dihydro-5H-thieno[2,3-c]pyran-3-carboxamido)ethyl)benzoic Acid] | < 0.1 | < 0.1 | – | – | – | able to suppress the growth | > 100 | > 100 | > 100 | > 100 | > 100 | > 100 | –
O=C(O)c1ccc(CNC(=O)c2c(Cc3ccc(F)cc3)sc3c2CCOC3)cc1 [YJ120, 4-((2-(4-fluorobenzyl)-4,7-dihydro-5H-thieno[2,3-c]pyran-3-carboxamido)methyl)benzoic Acid] | – | < 0.1 | – | – | – | able to suppress the growth | > 100 | > 100 | > 100 | > 100 | > 100 | > 100 | –
C[C@H](NC(=O)c1c(CCc2ccc(F)cc2)sc2c1CCCC2)c1ccc(C(=O)O)cc1 [YJ108, (S)-4-(1-(2-(4-fluorophenethyl)-4,5,6,7-tetrahydrobenzo[b]thiophene-3-carboxamido)ethyl)benzoic Acid] | < 0.1 | < 0.1 | > 10 | > 10 | > 10 | – | > 100 | > 100 | > 100 | > 100 | > 100 | > 100 | –
C[C@H](NC(=O)c1c(CCc2cccc(C(F)(F)F)c2)sc2c1CCOC2)c1ccc(C(=O)O)cc1 [YJ112, (S)-4-(1-(2-(3-(trifluoromethyl)phenethyl)-5,7-dihydro-4H-thieno[2,3-c]pyran-3-carboxamido)ethyl)benzoic Acid] | < 0.1 | 0.1 to 1 | > 10 | > 10 | > 10 | – | > 100 | > 100 | > 100 | > 100 | > 100 | > 100 | –
C[C@H](NC(=O)c1c(Cc2ccc(C(F)(F)F)cc2)sc2c1CCOC2)c1ccc(C(=O)O)cc1 [YJ115, (S)-4-(1-(2-(4-(trifluoromethyl)benzyl)-5,7-dihydro-4H-thieno[2,3-c]pyran-3-carboxamido)ethyl)benzoic Acid] | < 0.1 | < 0.1 | – | – | – | able to suppress the growth | > 100 | > 100 | > 100 | > 100 | > 100 | > 100 | –
